For experiment [1], the target named is Acetylcholinesterase (Homo sapiens, UniProt P22303).
Description: Inhibitory concentration against Acetylcholinesterase from human erythrocytes
The target of experiment [2] is Cholinesterase (Homo sapiens, UniProt P06276).
Description: Inhibitory concentration against Butyrylcholinesterase from human erythrocytes
In experiment [3] the target is T1, Acetylcholinesterase (Bos taurus, UniProt P23795).
T1 sequence (P23795 whole entry): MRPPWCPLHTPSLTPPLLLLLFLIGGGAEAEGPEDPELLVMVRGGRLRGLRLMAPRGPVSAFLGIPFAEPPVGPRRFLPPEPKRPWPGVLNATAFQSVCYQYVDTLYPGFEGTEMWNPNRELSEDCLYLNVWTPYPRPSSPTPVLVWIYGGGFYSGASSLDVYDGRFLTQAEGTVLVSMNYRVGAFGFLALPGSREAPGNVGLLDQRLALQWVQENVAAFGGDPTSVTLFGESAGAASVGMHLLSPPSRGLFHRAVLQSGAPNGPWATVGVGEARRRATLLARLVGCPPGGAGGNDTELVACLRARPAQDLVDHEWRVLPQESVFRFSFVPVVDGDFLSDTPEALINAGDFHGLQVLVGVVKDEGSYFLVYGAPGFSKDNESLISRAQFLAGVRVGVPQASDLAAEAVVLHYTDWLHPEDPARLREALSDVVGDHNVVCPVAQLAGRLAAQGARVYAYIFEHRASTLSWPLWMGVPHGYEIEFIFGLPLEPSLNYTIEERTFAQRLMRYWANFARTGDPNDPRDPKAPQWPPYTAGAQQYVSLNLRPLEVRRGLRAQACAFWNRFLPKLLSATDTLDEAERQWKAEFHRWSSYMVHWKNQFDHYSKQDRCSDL

For experiment [4], the target named is T1, Acetylcholinesterase. Nature of the experiment: Inhibitory concentration against Acetylcholinesterase from bovine erythrocytes after 45 min incubation.

Sequence of Acetylcholinesterase (Homo sapiens, UniProt P22303) (P22303 whole entry): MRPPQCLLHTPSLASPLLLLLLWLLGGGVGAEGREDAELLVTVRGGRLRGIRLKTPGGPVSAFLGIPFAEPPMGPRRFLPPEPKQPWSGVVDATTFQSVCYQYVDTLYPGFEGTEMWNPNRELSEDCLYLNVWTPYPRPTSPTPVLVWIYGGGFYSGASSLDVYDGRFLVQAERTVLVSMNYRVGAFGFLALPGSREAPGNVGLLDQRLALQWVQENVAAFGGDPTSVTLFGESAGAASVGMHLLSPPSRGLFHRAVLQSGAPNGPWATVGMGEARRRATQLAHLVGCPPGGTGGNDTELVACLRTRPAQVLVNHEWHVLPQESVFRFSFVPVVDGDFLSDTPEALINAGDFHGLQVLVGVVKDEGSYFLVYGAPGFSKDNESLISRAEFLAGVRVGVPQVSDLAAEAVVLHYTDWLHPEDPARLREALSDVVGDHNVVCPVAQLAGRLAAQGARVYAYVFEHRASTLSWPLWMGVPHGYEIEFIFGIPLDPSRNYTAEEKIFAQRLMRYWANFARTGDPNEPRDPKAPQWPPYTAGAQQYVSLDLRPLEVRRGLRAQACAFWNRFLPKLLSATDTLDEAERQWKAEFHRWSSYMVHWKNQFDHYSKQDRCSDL
Sequence of Cholinesterase (P06276 whole entry): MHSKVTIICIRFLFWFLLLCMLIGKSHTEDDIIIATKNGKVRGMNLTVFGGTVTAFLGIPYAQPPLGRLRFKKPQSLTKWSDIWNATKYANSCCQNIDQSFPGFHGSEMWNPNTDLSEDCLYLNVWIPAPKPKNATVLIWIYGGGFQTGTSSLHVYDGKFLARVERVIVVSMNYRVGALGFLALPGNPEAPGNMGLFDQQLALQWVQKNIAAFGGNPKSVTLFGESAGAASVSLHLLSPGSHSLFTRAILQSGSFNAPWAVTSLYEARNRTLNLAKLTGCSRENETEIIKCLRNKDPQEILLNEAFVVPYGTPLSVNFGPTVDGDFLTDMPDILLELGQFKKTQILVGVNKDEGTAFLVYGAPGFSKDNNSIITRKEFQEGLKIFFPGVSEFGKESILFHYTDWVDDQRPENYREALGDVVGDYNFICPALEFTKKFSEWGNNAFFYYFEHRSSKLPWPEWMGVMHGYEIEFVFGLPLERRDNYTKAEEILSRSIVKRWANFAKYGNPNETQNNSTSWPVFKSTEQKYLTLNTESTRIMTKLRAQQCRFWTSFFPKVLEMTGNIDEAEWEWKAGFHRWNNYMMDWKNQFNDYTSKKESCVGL

`CC1=C[C@@H]2Cc3nc4cc(Cl)ccc4c(NCCCN(C)CCCCNc4c5c(nc6cc(Cl)ccc46)CCCC5)c3[C@H](C1)C2`: the IC50 (usually the midpoint of a concentration-inhibition curve) was found to be 0.29 nM in experiment [1], 31.1 nM in experiment [2], 0.54 nM in experiment [3] and 0.44 nM in experiment [4].

Turning to `CC1=C[C@@H]2Cc3nc4cc(Cl)ccc4c(NCCCN(C)CCCCNc4c5c(nc6ccccc46)CCCC5)c3[C@H](C1)C2`, the IC50 in experiment [1] was 0.32 nM; in experiment [2] it was 16.4 nM; in experiment [3] it was 0.33 nM; in experiment [4] it was 0.26 nM.

With `CC1=CC2Cc3nc4cc(Cl)ccc4c(NCCCCCCCCNc4c5c(nc6ccccc46)CCCC5)c3C(C1)C2` (stereo unspecified), the IC50 was determined as 0.33 nM in experiment [1], 4.74 nM in experiment [2], 1.26 nM in experiment [3] and 0.65 nM in experiment [4].

For `CCC1=CC2Cc3nc4ccccc4c(NCCCCCCCCNc4c5c(nc6ccccc46)CCCC5)c3C(C1)C2` (stereo unspecified), the IC50 in experiment [1] amounted to 0.82 nM; in experiment [2] it was 5.55 nM; in experiment [3], 2.19 nM; in experiment [4] it was 1.67 nM.

In the case of `CC1=CC2Cc3nc4cc(Cl)ccc4c(NCCCCCCCNc4c5c(nc6cc(Cl)ccc46)CCCC5)c3C(C1)C2` (stereo unspecified), the half-maximal inhibitory concentration (IC50) in experiment [1] stood at 0.33 nM; in experiment [2], 7.38 nM; in experiment [3], 1.97 nM; in experiment [4] it was 1.6 nM.

On to `CC1=CC2Cc3nc4cc(Cl)ccc4c(NCCCCCCCCNc4c5c(nc6cc(Cl)ccc46)CCCC5)c3C(C1)C2` (stereo unspecified), for which the IC50 in experiment [1] came to 0.4 nM; in experiment [2], 7.8 nM; in experiment [3], 2.09 nM; in experiment [4], 1.31 nM.

As to `CC1=CC2Cc3nc4cc(Cl)ccc4c(NCCCCCCNc4c5c(nc6cc(Cl)ccc46)CCCC5)c3C(C1)C2` (stereo unspecified), the IC50 in experiment [1] is 0.45 nM; in experiment [2], 14 nM; in experiment [3], 1.06 nM; in experiment [4], 0.8 nM.

Regarding `CC1=CC2Cc3nc4cc(Cl)ccc4c(NCCCCCCNc4c5c(nc6ccccc46)CCCC5)c3C(C1)C2` (stereo unspecified), the IC50 in experiment [1] came out at 0.5 nM; in experiment [2], 7.69 nM; in experiment [3], 0.4 nM; in experiment [4] it was 0.27 nM.

For `CC1=CC2Cc3nc4cc(Cl)ccc4c(NCCCCCCCNc4c5c(nc6ccccc46)CCCC5)c3C(C1)C2` (stereo unspecified), the IC50 in experiment [1] was 0.34 nM; in experiment [2] it was 6.7 nM; in experiment [3] it was 0.48 nM; in experiment [4], 0.36 nM.

For the origin of these results see ChEMBL document CHEMBL1142714, “Synthesis and pharmacological evaluation of huprine-tacrine heterodimers: subnanomolar dual binding site acetylcholinesterase inhibitors” (J Med Chem, 2005).
